Measured values reported in patent US11691961B2, “Molecule having pesticidal utility, and compositions, and processes, related thereto” (CORTEVA AGRISCIENCE LLC, priority 2018, dated 2023).

Columns and labels:
[1] = test system: Green Peach Aphid (Myzus persicae, MYZUPE); assay: Bioassay 1: Green Peach Aphid foliar spray on cabbage seedlings; type: in vivo; settings: for Myzus persicae Mean LC50 PPM: infested cabbage seedlings sprayed until runoff, live aphids counted three days after treatment, Abbott-corrected percent control, mean of replicates; for Myzus persicae % (percent increase in the Mean LC50 required): relative to F1: ((LC50 - LC50 of F1)/LC50 of F1)*100
Experimental: (§1) F1, CE1, CE2, CE3, and CE4 (2 mg each) were each dissolved in 2 mL of acetone/methanol (1:1) solvent, forming stock solutions of 1000 ppm for each test molecule. The stock solutions were diluted 5× with 0.025% Tween® 20 in water to obtain test solutions at 200 ppm for each test molecule. Subsequent 4× dilutions, in water containing 0.025% Tween® 20 and 10% acetone/methanol (1:1), were used to generate the desired concentrations for dose responses. A minimum of 5 concentrations of each test molecule were used for each assay.
Bioassay 1: Green Peach Aphid (Myzus persicae, MYZUPE) (“GPA”).
Test solutions of Formula One and the Comparative Examples, prepared as described above, were tested against GPA using the following procedure.
Cabbage seedlings grown in 3-inch pots, with 2-3 small (3-5 cm) true leaves, were used as test substrate. The seedlings were infested with 20-50 GPA (wingless adult and nymph stages) one day prior to chemical application. Four pots with individual seedlings were used for each treatment. A hand-held aspirator-type sprayer was used for spraying a solution to both sides of […] leaves until runoff. Reference plants (solvent check) were sprayed with the diluent only (0.025% Tween® 20 and 10% acetone/methanol (1:1) in water). Treated plants were held in a holding room for three days at approximately 25° C. and ambient relative humidity (RH) prior to grading. Evaluation was conducted by counting the number of live aphids per plant under a microscope three days after treatment. Percent control was measured using Abbott's correction formula (W. S. Abbott, “A Method of Computing the Effectiveness of an Insecticide” J. Econ. Entomol. 18 (1925), pp. 265-267) as follows:
(§2) [formula] where X=No. of live aphids on solvent check plants and Y=No. of live aphids on treated plants. Bioassay 2: Sweet potato Whitefly (Bemisia tabaci, BEMITA) (“SPW”).

[2] = test system: Sweet potato Whitefly (Bemisia tabaci, BEMITA); assay: Bioassay 2: Sweet potato Whitefly foliar spray on cotton seedlings; type: in vivo; settings: for Bemisia tabaci Mean LC50 PPM: cotton seedlings sprayed at crawler emergence, 2-3 instar nymphs counted 7-9 days after treatment, Abbott-corrected percent control, mean of replicates; for Bemisia tabaci % (percent increase in the Mean LC50 required): relative to F1: ((LC50 - LC50 of F1)/LC50 of F1)*100
Experimental: as §1, §2
Test solutions of Formula One and the Comparative Examples, prepared as described above, were tested against SPW using the following procedure.
Cotton seedlings grown in 3-inch pots, pruned so that only one true leaf remained, were used as test substrate. Adult B. tabaci were allowed to colonize these plants and lay eggs for 24 hours after which all adults were removed from the plants using compressed air. Plants were monitored for egg development and, when crawler emergence was underway (>25% emergence based on visual examination using a microscope), the plants were sprayed using the test solutions and methods described above for green peach aphids (GPA). Treated plants were held in a holding room at approximately 25° C. and ambient relative humidity (RH) prior to grading. Evaluation was conducted by counting the number of developed 2-3 instar nymphs per plant under a microscope 7-9 days after treatment. Percent control was measured using Abbott's correction formula (W. S. Abbott, “A Method of Computing the Effectiveness of an Insecticide” J. Econ. Entomol. 18 (1925), pp. 265-267) as follows:
[formula] where X=No. of live nymphs on solvent check plants and Y=No. of live nymphs on treated plants. Analysis of Bioassays

Compound	Myzus persicae Mean LC50 PPM [1]	Bemisia tabaci Mean LC50 PPM [2]	Bemisia tabaci % (percent increase in the Mean LC50 required) [2]	Myzus persicae % (percent increase in the Mean LC50 required) [1]
CC(C(=O)N(C)c1cn(-c2cccnc2)nc1Cl)S(C)(=O)=O (centres unmarked) [CE1, N-(3-chloro-1-(pyridin-3-yl)-1H-pyrazol-4-yl)-N-methyl-2-(methylsulfonyl)propanamide]	0.29 PPM	5.61 PPM	15%	–
CN(C(=O)CS(C)(=O)=O)c1cn(-c2cccnc2)nc1Cl [CE2, N-(3-chloro-1-(pyridin-3-yl)-1H-pyrazol-4-yl)-N-methyl-2-(methylsulfonyl)acetamide]	0.52 PPM	21.01 PPM	–	–
CS(=O)(=O)CC(=O)Nc1cn(-c2cccnc2)nc1Cl [CE3, N-(3-chloro-1-(pyridin-3-yl)-1H-pyrazol-4-yl)-2-(methylsulfonyl)acetamide]	0.05 PPM	25.35 PPM	–	−29%
CC(C)(C(=O)Nc1cn(-c2cccnc2)nc1Cl)S(C)(=O)=O [CE4, N-(3-chloro-1-(pyridin-3-yl)-1H-pyrazol-4-yl)-2-methyl-2-(methylsulfonyl)propanamide]	2.17 PPM	9.72 PPM	100%	3000%
CC(C(=O)Nc1cn(-c2cccnc2)nc1Cl)S(C)(=O)=O (centres unmarked) [Molecule F1, N-(3-chloro-1-(pyridin-3-yl)-1H-pyrazol-4-yl)-2-(methylsulfonyl)propanamide]	0.07 PPM	4.87 PPM	–	–
